Assay results reported in patent US20100286400A1, “CRYSTALLINE SOLVATED FORMS OF (R)-2-[[[3-METHYL-4-(2,2,2-TRIFLUOROETHOXY)-2-PYRIDINYL]METHYL]SULFINYL]-1H-BENZIMIDAZOLE” (TAKEDA PHARMACEUTICAL COMPANY LIMITED, priority 2007, published 2010).

How the values were obtained:
Format in all cases: physicochemical
[1] = Relationships among Forms of R(+)-lansoprazole under various conditions
From the text: The relationships among Forms of R(+)-lansoprazole were studied under various conditions.

[2] = Solubility of crystal forms as a suspension of powder in water (HPLC and XRPD)
Procedure: The solubilities of Forms I, II, III, IV and VI of (R)-lansoprazole obtained in the above-mentioned Reference Example 1 and Examples were tested as a suspension of power in water at 25° C. for 5 days. The solid samples of each form were tested as-is by HPLC and XRPD without particle size determination. […] The extent of chemical degradation as a function of time was similar for all forms.

[3] = Interconversion slurries of mixtures of forms in aqueous saturated solutions (XRPD); details: slurry in water, ambient, additional time beyond 5 days
Procedure: Mixtures of Forms I, II, III, IV and VI were slurried in aqueous saturated solutions at ambient temperature and up to 40° C. A mixture of Form II and Pattern V material was obtained when the mixture of forms was slurried at ambient temperature for 5 days, despite the absence of Pattern V material as starting material.

## Cc1c(OCC(F)(F)F)ccnc1C[S@@+]([O-])c1nc2ccccc2[nH]1 [Form II, (R)-2-[[[3-methyl-4-(2,2,2-trifluoroethoxy)-2-pyridinyl]methyl]sulfinyl]-1H-benzimidazole]
[1]; according to Experimental Example 2 and 3, most stable first
  order of stability in transfer (crystal form conversion): Form II, Form VI, Form III, Form IV, and Form V, in that order
[1]; vial purged with nitrogen, heated to 93° C. in an oil bath
  appearance on heating: Sample had turned brown in up to 45 seconds, removed
[2]; suspension in water at 25° C. for 5 days
  chemical degradation over time: chemically degraded over time

## Cc1c(OCC(F)(F)F)ccnc1C[S@@+]([O-])c1nc2ccccc2[nH]1 [Pattern V, (R)-2-[[[3-methyl-4-(2,2,2-trifluoroethoxy)-2-pyridinyl]methyl]sulfinyl]-1H-benzimidazole]
[3]
  form obtained on additional slurry time: converted to Form II

## Cc1c(OCC(F)(F)F)ccnc1C[S@@+]([O-])c1nc2ccccc2[nH]1 [Form I, (R)-2-[[[3-methyl-4-(2,2,2-trifluoroethoxy)-2-pyridinyl]methyl]sulfinyl]-1H-benzimidazole]
[2]; after 5 days as a suspension in water at 25° C.
  XRPD of residual solids after the solubility study: a mixture consisting of Form I (major component) and Form II
